Data set [1] in a line: Solubility of compound in DMSO. Type of data set: physicochemical.
For data set [2], the system named is Nucleic Acid. Kind of data set: Induction of bacteriophage supercoiled double stranded phiX174 plasmid DNA cleavage assessed as formation of relaxed open circular form at 80 ug followed by UV irradiation for 45 mins using ethidium bromide staining by agarose gel electrophoresis-based UV transilluminator analysis relative to control. Type of data set: nucleic-acid assay. Also on record: scale not given: the % may be the effect or the level left. The settings on record: unidentified phage.

Data set [3] deals with Nucleic Acid. Kind of data set: Induction of bacteriophage supercoiled double stranded phiX174 plasmid DNA cleavage assessed as formation of relaxed open circular form at 40 ug using ethidium bromide staining by agarose gel electrophoresis-based UV transilluminator analysis relative to control. The class given is nucleic-acid assay. Set-up: scale not given: the % may be the effect or the level left. The note with it: unidentified phage.

Data set [4] deals with Nucleic Acid. The data set is described as follows: Induction of bacteriophage supercoiled double stranded phiX174 plasmid DNA cleavage assessed as formation of relaxed open circular form at 30 ug followed by UV irradiation for 45 mins using ethidium bromide staining by agarose gel electrophoresis-based UV transilluminator analysis relative to control. The class given is nucleic-acid assay. Also on record: scale not given: the % may be the effect or the level left. The note with it: unidentified phage.

The subject of data set [5] is Nucleic Acid. The data set is described as follows: Induction of bacteriophage supercoiled double stranded phiX174 plasmid DNA cleavage assessed as formation of relaxed open circular form at 120 ug followed by UV irradiation for 45 mins using ethidium bromide staining by agarose gel electrophoresis-based UV transilluminator analysis relative to control. Type of data set: nucleic-acid assay. Set-up: scale not given: the % may be the effect or the level left. The settings on record: unidentified phage.

The values below come from ChEMBL document CHEMBL1914296, “Copper(II) chloride mediated synthesis and DNA photocleavage activity of 1-aryl/heteroaryl-4-substituted-1,2,4-triazolo[4,3-a]quinoxalines” (Eur J Med Chem, 2011).

Take `Cc1nc2ccccc2n2c(-c3ccccc3Cl)nnc12`: the solubility result in data set [1] was “soluble”.
For `Cc1nc2ccccc2n2c(-c3cccs3)nnc12`, the Activity was 53% in the data set with Nucleic Acid [2], 0% with Nucleic Acid [3], 26% with Nucleic Acid [4] and 68% in the data set with Nucleic Acid [5]. The solubility entry in data set [1] is listed as “soluble”.
In the case of `Cc1nc2ccccc2n2c(-c3ccco3)nnc12`, the solubility result in data set [1] is given as “soluble”.
In the case of `Cc1nc2ccccc2n2c(-c3ccccc3[N+](=O)[O-])nnc12`, the solubility result in data set [1] is “soluble”.
